According to US20090203744A1, “NOVEL PYRIDINE DERIVATIVES” (priority 2005, published 2009):

Tests used:
3T3-L1 cells = test: Glucose uptake assay using 3T3-L1 cells; assay type: cell-based; settings: differentiated 3T3-L1 adipocytes, 1 μM, 72 hours, 14C deoxyglucose uptake for 10 minutes; with reference to stimulation index of BLX-1002
Experimental: 3T3-L1 cells were differentiated by the addition of differentiation cocktail (72 μg/ml insulin, 0.5 mM IBMX, 400 ng/ml Dexamethasone) for 4 days and later fed with media without differentiation cocktail for 7-8 days. After differentiation the cells were incubated with the either the reference compound BLX-1002 or compounds listed in the table 1 at 1 μM concentrations for 72 hours and carried out the glucose uptake assay for 10 minutes by the addition of KRP buffer supplemented with 2.5 μCi/ml ^14C deoxy glucose. Stimulation Index is defined as the amount of ^14C Deoxyglucose uptake induced by 1 μM of BLX-1002 incubated for 72 hours in an assay condition as per protocol described above with differentiated 3T3-L1 adipocytes. Values of compounds mentioned in table-1 are with reference to stimulation index of reference compound BLX-1002.

[1] = tested on: Streptozotocin induced diabetic mice; test: Antidiabetic activity in Streptozotocin induced diabetic mice; assay type: in vivo; settings: plasma, 50 mg/kg oral for 7 days, fasted 6 hours, compared to control group
Experimental: Male Swiss albino mice were used in the study at the age of 10 weeks. Diabetes was induced in animals by injecting Streptozotocin by i.p. route at a dose of 200-mg/kg-body weight. 48 hours after Streptozotocin administration, the animals were kept for fasting for 6 hours and blood was collected and plasma separated and glucose was estimated. Animals showing greater than 200 mg/dl glucose levels were considered as diabetic and these animals were randomly distributed into various groups. The compounds listed in the table 2 were administered at a dose of 50-mg/kg body weight by oral route for 7 days. Later animals were fasted for 6 hours and blood was collected and plasma separated. Biochemical estimations like glucose, cholesterol and triglycerides were carried out using the plasma. The effect of compounds mentioned in the table was expressed in terms of percentage reduction in biochemical values as compared to control group.

SMILES	Stimulation Index (3T3-L1 cells)	% Reduction Triglyceride [1] [%]	also measured
CN1C(=O)OC[C@@H]1Cc1ccc(Oc2ccc(Nc3ccccn3)cc2)cc1 [Example 1, 3-methyl-4-{4-[4-(pyridin-2-ylamino)phenoxy]benzyl}-1,3-oxazolidin-2-one]	0.827	–	–
CN1C(=O)OC[C@@H]1Cc1ccc(Oc2ccc(Nc3ccc([N+](=O)[O-])cn3)cc2)cc1 [Example 2, (4S)4-(4-{4-[(5-nitropyridin-2-yl)amino]phenoxy}benzyl)-3-methyl-1,3-oxazolidin-2-one]	0.935	–	–
CCN1C(=O)OC[C@@H]1Cc1ccc(Oc2ccc(Nc3ccccn3)cc2F)cc1 [Example 8, (4S)-4-[4-(2-fluoro-4-{[5-pyridin-2-yl]amino}phenoxy)benzyl]-3-ethyl-1,3-oxazolidin-2-one]	1.049	–	–
CCN1C(=O)OC[C@@H]1Cc1ccc(Oc2ccc(Nc3ncccc3[N+](=O)[O-])cc2F)cc1 [Example 12, (4S)-4-[4-(2-fluoro-4-{[3-nitropyridin-2-yl]amino}phenoxy)benzyl]-3-ethyl-1,3-oxazolidin-2-one]	0.935	–	–
CCN1C(=O)OC[C@@H]1Cc1ccc(Oc2ccc(Nc3ncccc3C#N)cc2F)cc1 [Example 13, 2-{[3-fluoro-4-(4-{[(4S)-3-ethyl-2-oxo-1,3-oxazolidin-4-yl]methyl}phenoxy)phenyl]amino}nicotinonitrile]	0.874	–	–
CCN1C(=O)OC[C@@H]1Cc1ccc(Oc2ccc(Nc3ncccc3C#N)cc2)cc1 [Example 14, 2-[(4-{4-[(3-ethyl-2-oxo-1,3-oxazolidin-4-yl)methyl]phenoxy}phenyl)amino]nicotinonitrile]	0.827	–	–
CN1C(=O)OC[C@@H]1Cc1ccc(Oc2ccc(Nc3ncccc3C#N)cc2F)cc1 [Example 22, 2-{[3-fluoro-4-(4-{[(4S)-3-methyl-2-oxo-1,3-oxazolidin-4-yl]methyl}phenoxy)phenyl]amino}nicotinonitrile]	–	5.2	–
CCN(c1ccc(Oc2ccc(C[C@H]3COC(=O)N3CC)cc2)cc1)c1ncccc1C#N [Example 24, (4S)-2-[ethyl(4-{4-[(3-ethyl-2-oxo-1,3-oxazolidin-4-yl)methyl]phenoxy}phenyl)amino]nicotinonitrile]	–	13.7	% Reduction Cholesterol [1]: 15.9%
CN(c1ccc(Oc2ccc(C[C@H]3COC(=O)N3C)cc2)cc1)c1ncccc1C#N [Example 45, (4S)-2-[methyl(4-{4-[(3-methyl-2-oxo-1,3-oxazolidin-4-yl)methyl]phenoxy}phenyl)amino]nicotinonitrile]	–	53.8	% Reduction Cholesterol [1]: 10%; % Reduction Glucose [1]: 39%
